In ChEMBL document CHEMBL4393738, “Design of hybrid molecules as antimycobacterial compounds: Synthesis of isoniazid-naphthoquinone derivatives and their activity against susceptible and resistant strains of Mycobacterium tuberculosis” (Bioorg Med Chem, 2019) one finds selectivity ratio and IC50 data, which are given here for 22 molecules.

A short description of data set [1]: Selectivity index, ratio of IC50 for mouse J774.A1 cells to MIC for Mycobacterium tuberculosis H37Rv. Type of data set: toxicity. To be noted: read-out: Selectivity Index.
The subject of another data set is J774.A1. In words: Cytotoxicity against mouse J774.A1 cells measured after 24 hrs by resazurin based assay. Type of data set: cell-based. To be noted: J774.A1, 24 h.
The nature of data set [2]: Selectivity index, ratio of IC50 for mouse J774.A1 cells to MIC for Mycobacterium tuberculosis INH R2. The data set is classed as toxicity. To be noted: read-out: Selectivity Index.
A short description of data set [3]: Selectivity index, ratio of IC50 for mouse J774.A1 cells to MIC for Mycobacterium tuberculosis INH R1 ATCC 35822. The data set is classed as toxicity. As to conditions: read-out: Selectivity Index.

Each structure is given as a SMILES string. In brackets after ≈: the same amount, converted by molar mass.

Take `O=C1C(=O)c2ccccc2C2=C1CC(Cn1cc(-c3ccccc3)nn1)O2` (stereo not given): the selectivity ratio in data set [1] came to 0.2; in data set [2], 0.1; in data set [3], 0.1. The molecule further gave an IC50 with J774.A1 of 2.94 µg/mL (≈ 8.23 µM).

Molecule `CC1(C)CCC2=C(O1)C(=O)c1ccccc1C2=O` [ALPHA-LAPACHONE] returned an IC50 in the data set with J774.A1 of 285 µg/mL (≈ 1180 µM).

In the case of `CC1(C)OC2=C(C(=O)C(=O)c3ccccc32)C1n1cc(-c2ccccc2)nn1` (stereo not given), the selectivity ratio in data set [1] worked out at 0.3; in data set [2] it was 0.1; in data set [3] it was 0.1. In the data set with J774.A1, 2.11 µg/mL (≈ 5.68 µM) corresponded to half-maximal inhibition (IC50).

Consider `CC1(C)OC2=C(C(=O)C(=O)c3ccccc32)C1O` (stereo not given), for which the selectivity ratio in data set [1] was determined as 0.3; in data set [2], 0.1; in data set [3], 0.1. In addition, the IC50 in the data set with J774.A1 is 3.67 µg/mL (≈ 15 µM).

In the case of `CC1(C)OC2=C(CC1Br)C(=O)C(=O)c1ccccc12` (stereo not given), the results for the selectivity ratio in data set [1], in data set [2] and in data set [3] were 0.3, 0.6 and 0.3, respectively. The IC50 in the data set on J774.A1 is 1.93 µg/mL (≈ 6.01 µM).

For `CC1CC2=C(O1)c1ccccc1/C(=N/NC(=O)c1ccncc1)C2=O` (stereo not given), the selectivity ratio in data set [1] was above 16; in data set [2], above 8; in data set [3] it was above 16. Besides, the IC50 in the data set on J774.A1 is above 200 µg/mL.

`CC1(C)OC2=C(C(=O)C(=O)c3ccccc32)C1Nc1ccccc1` (stereo not given): the selectivity ratio was 0.6 in data set [1], 0.3 in data set [2] and 0.6 in data set [3]. The same molecule registered an IC50 in the data set with J774.A1 of 1.82 µg/mL (≈ 5.7 µM).

On to `CC1(C)OC2=C(C(=O)C(=O)c3ccccc32)[C@H](n2cc(-c3ccccc3)nn2)[C@H]1Br` (racemic), for which the selectivity ratio is 0.9 in data set [1], 0.1 in data set [2] and 0.2 in data set [3]. The molecule further yielded an IC50 in the data set on J774.A1 of 1.47 µg/mL (≈ 3.17 µM).

Turning to `CC1(C)OC2=C(C(=O)/C(=N\NC(=O)c3ccncc3)c3ccccc32)C1n1cc(-c2ccccc2)nn1` (stereo not given), the selectivity ratio in data set [1], in data set [2] and in data set [3] was 8.1 each time. The molecule further returned an IC50 with J774.A1 of 101 µg/mL (≈ 207 µM).

With `CC1(C)OC2=C(C(=O)/C(=N\NC(=O)c3ccncc3)c3ccccc32)C1O` (stereo not given), the selectivity ratio in data set [1] is above 32; in data set [2], above 2; in data set [3] it was above 1. This molecule yielded an IC50 in the data set on J774.A1 above 200 µg/mL.

For the molecule `CC1(C)CC2=C(O1)C(=O)c1ccccc1C2=O`, the selectivity ratio in data set [1] was 1.5; in data set [2], 0.7; in data set [3] it was 0.7. Moreover, the midpoint of inhibition in the data set with J774.A1, the IC50, lay at 18.6 µg/mL (≈ 81.6 µM).

In the case of `CC1(C)OC2=C(CC1I)C(=O)/C(=N\NC(=O)c1ccncc1)c1ccccc12` (stereo not given), the selectivity ratio in data set [1], in data set [2] and in data set [3] was 0.3 in each case. Moreover, the IC50 in the data set on J774.A1 turned out to be 30.8 µg/mL (≈ 63.1 µM).

Take `CC1(C)CCC2=C(O1)c1ccccc1/C(=N/NC(=O)c1ccncc1)C2=O`: the figures for the selectivity ratio in data set [1], in data set [2] and in data set [3] were above 250, above 32 and above 4, respectively. The molecule further gave an IC50 with J774.A1 above 200 µg/mL.

As to `CC1(C)CCC2=C(O1)c1ccccc1C(=O)C2=O` [LAPACHONE], the selectivity ratio in data set [1] was above 32; in data set [2], above 32; in data set [3], above 64. In the data set with J774.A1, this molecule returned an IC50 above 200 µg/mL.

`CC1(C)OC2=C(CC1I)C(=O)C(=O)c1ccccc12` (stereo not given): the selectivity ratio is 1 in data set [1], 0.5 in data set [2] and 1 in data set [3]. Further, inhibition in the data set on J774.A1 was half-maximal at 3.2 µg/mL (≈ 8.69 µM) (IC50).

In the case of `CC1(C)CC2=C(O1)c1ccccc1C(=O)C2=O` [NOR-BETA-LAPACHONE], the selectivity ratio in data set [1] was 1.2; in data set [2], 0.6; in data set [3] it was 0.3. For the same molecule, the half-maximal inhibitory concentration (IC50) with J774.A1 is 3.69 µg/mL (≈ 16.2 µM).

In the case of `CC1(C)CC2=C(O1)/C(=N\NC(=O)c1ccncc1)c1ccccc1C2=O`, the selectivity ratio is 0.7 in data set [1], 0.1 in data set [2] and 0.2 in data set [3]. Besides, the IC50 in the data set on J774.A1 was determined as 17 µg/mL (≈ 48.9 µM).

Consider `O=C1C2=C(OC(Cn3cc(-c4ccccc4)nn3)C2)c2ccccc2/C1=N/NC(=O)c1ccncc1` (stereo not given), for which the selectivity ratio in data set [1] was 1.5; in data set [2], 0.4; in data set [3] it was 0.4. In the data set with J774.A1, this molecule returned an IC50 of 18.4 µg/mL (≈ 38.6 µM).

For the molecule `CC1(C)OC2=C(CC1Br)C(=O)/C(=N\NC(=O)c1ccncc1)c1ccccc12` (stereo not given), the selectivity ratio in data set [1], in data set [2] and in data set [3] was above 16 in each case. In the data set with J774.A1, the IC50 was above 200 µg/mL.

For the molecule `CC1(C)CC2=C(O1)c1ccccc1/C(=N/NC(=O)c1ccncc1)C2=O`, the selectivity ratio in data set [1] is above 250; in data set [2], above 32; in data set [3], above 4. The molecule also had a concentration for half-maximal inhibition (IC50) in the data set on J774.A1 above 200 µg/mL.

Consider `CC1(C)OC2=C(C(=O)/C(=N\NC(=O)c3ccncc3)c3ccccc32)[C@H](n2cc(-c3ccccc3)nn2)[C@H]1Br`, for which the selectivity ratio is 0.9 in data set [1], below 0.9 in data set [2] and 0.9 in data set [3]. Moreover, the IC50 in the data set with J774.A1 came out at 175 µg/mL (≈ 300 µM).

On to `CC1(C)OC2=C(C(=O)/C(=N\NC(=O)c3ccncc3)c3ccccc32)C1Nc1ccccc1` (stereo not given), for which the selectivity ratio stood at 3 in data set [1], 3 in data set [2] and 0.7 in data set [3]. Moreover, the IC50 in the data set on J774.A1 was 74.2 µg/mL (≈ 169 µM).
